Reference: patent publication US10960018B2, “Methods and compounds for stimulating read-through of premature termination codons” (The UAB Research Foundation, priority 2016, dated 2021)

Key:
Assay type in all cases: cell-based, Rat
[1] = tested on: FRT W1282X cells; assay: Transepithelial chloride conductance assay in FRT W1282X cells; conditions: 48 hours; escin 10 μM, G418 250 μg/ml, VX-770 10 μM, VX-809 6 μM, NMDI-14 20 μg/ml, tobramycin 150, gentamicin 250 μg/ml
Method: (§1) Stably transfected FRT cells as described herein cells were seeded onto Costar 24-well […] permeable supports at a density of ˜2×10^6 cells/filter and maintained at 37° C. with 5% CO2. Transepithelial resistance was assessed using an epithelial voltmeter to ensure the formation of tight monolayers, as defined by resistance >6 kcm^2. During initial evaluation of agents, cells were treated with compounds (10 μM), vehicle control (0.3% DMSO), or positive control (250 μg/mL G418) for 48 hours before transepithelial conductance (Gt) was assessed; subsequent studies used other concentrations of compounds. Measurements were taken at baseline, after the addition of 20 μM forskolin (FSK, a cAMP agonist that stimulates CFTR activity) and 10 μM CFTRInh-172 (a CFTR-specific inhibitor).
Individual assays were performed as described herein.
As previously reported in the literature, the combination of CFTR correctors (such as VX-809) and CFTR potentiators (such as VX-770) act synergistically to improve CFTR function. […] Compounds alone or in the indicated combination were pre-incubated with FRT W1282X cells for 48 hours. During the assay the baseline conductance (Gt) was initially determined prior to the acute addition of forskolin (20 μM) and VX-770 (10 μM) to stimulate CFTR activity; the CFTR inhibitor, CFTRInh-172 (10 μM), was added to inhibit CFTR activity at the end of the assay. Enhancement of PTC read-through by the compounds of the present disclosure was determined by an increase in CFTR conductance. CFTR conductance also indicated the CFTR was functional as a result of the read-through of the PTC.
Compounds alone or in the indicated combination were pre-incubated with FRT G542X cells for 48 hours. […] Enhancement of PTC read-through by the compounds of the present disclosure was determined by an increase in CFTR conductance. CFTR conductance also indicated the CFTR was functional as a result of the read-through of the PTC.
It has been reported that aminoglycosides interfere with the action read-through stimulating compound. […] CFTR conductance also indicated the CFTR was functional as a result of the read-through of the PTC.
Stimulation of CFTR activity was determined by an increase in CFTR conductance. […] During the assay the baseline conductance (Gt) was initially determined prior to the acute addition of forskolin (20 μM) and GP-5 (10 μM) to stimulate CFTR activity; the CFTR inhibitor, […] (10 μM), was added to inhibit CFTR activity at the end of the assay.
The effect of the read-through stimulating compounds of the present disclosure in combination with the CFTR corrector VX-809 was further examined in FRT cells with the G542X, Y122X and W1282X mutations. […] CFTR conductance also indicated the CFTR was functional as a result of the read-through of the PTC.

[2] = tested on: FRT G542X cells; assay: Transepithelial chloride conductance (TECC) assay in FRT G542X cells
Method: as §1
In the TECC assay, FRT G542X cells were treated with a single dose (10 μM) of each compound. FRT G542X cells were incubated for 48 hours with the compounds prior or vehicle control (0.3% DMSO). During the assay the baseline conductance (Gt) was initially determined prior to the acute addition of forskolin (20 μM) and VX-770 (10 μM) to stimulate CFTR activity; the CFTR inhibitor, CFTRInh-172 (10 μM), was added to inhibit CFTR activity at the end of the assay. In these experiments, an increase in CFTR conductance indicates the compounds stimulated read-through of the PTC in the constructs tested and that the CFTR was functional.
To prioritize which of the 48 read-through-positive compounds identified would be most efficacious in augmenting PTC read-through and restoring protein function, the TECC assay was repeated (in triplicate) using FRT G542X cells and FRT cells without CFTR (parental cells). Compounds (10 μM) or vehicle control (0.3% DMSO) were incubated for 48 hours with the cells. During the assay the baseline conductance (Gt) was initially determined prior to the acute addition of forskolin (20 μM) and VX-770 (10 μM) to stimulate CFTR activity; the CFTR inhibitor, CFTRInh-172 (10 μM), was added to inhibit CFTR activity at the end of the assay. G418 (250 μg/ml) was used as a positive control. In this assay, an increase in CFTR conductance indicates the compound stimulated read-through of the PTC in the constructs tested and that the CFTR was functional. The 48 compounds tested are provided in the Table 1 below (with the numerical designations corresponding to those shown in FIG. 4).
A series of functional assays was performed to evaluate the efficacy of these lead compounds in greater detail. Using FRT G542X cells, the optimal dose of each compound in augmenting chloride conductance (FIG. 5A) was determined. FRT G542X cells were incubated with compound (1 μM to 30 μM), G418 (250 μg/mL) or vehicle control (0.3% DMSO) for 48 hours. The conductance assay was conducted as described in Example 2 above. In this assay, an increase in CFTR conductance indicates the compounds stimulated read-through of the PTC in the constructs tested and that the CFTR was functional.

[3] = tested on: FRT wild-type CFTR control cells; assay: Firefly luciferase reporter assay, wild-type control; conditions: 300 to 500 μg/ml, 24 hours
Method: The luciferase assay was performed on a Pharmakon 1600 library to determine the efficacy of each compound in promoting read-through. 5 ul of each compound as a DMSO stock solution were dissolved in F-12 Ham medium and dispensed into separate wells of 384-well plates (Corning) using a BioMek FX. FRT cells (10,000 cells/well) containing the reporter gene construct (QXN UGAC) were then added using the Matrix WellMate. The plates were incubated for 24 hours at 37° C., 5% CO2, and 95% humidity, after which firefly luciferase activity was determined by equilibrating the plates to room temperature, adding an equal volume of Promega BrightGlo (Promega), and reading enhanced luminescence with an Envision Plate Reader (PerkinElmer) within 5 minutes. […]
To validate these cell lines, the cell lines were treated with G418, a read-through agent with established efficacy in vitro (Bedwell D M, et al.; Nat Med; 3:1280-1284; 1997), at doses up to from 300 to 500 μg/ml. An increase in luciferase activity indicates G418 stimulated read-through of the PTC in the constructs tested. […] For screening purposes, firefly luciferase levels were measured without assessment of Renilla expression as an indication of total construct expression.

SMILES | CFTR function (conductance) in presence of forskolin and VX-770 [1] | incubation time of maximal effect on forskolin-induced conductance ([2]; 250 μg/ml, 0 to 72 hours) | signal intensity at 48 hrs pre-incubation ([2]; 250 μg/ml, relative to maximal effect at 72 hrs) | firefly luciferase activity compared to DMSO-treated vehicle [3] | CFTR function (conductance) in presence of VX-770 and forskolin ([2]; 48 hours, escin 10 μM, NMDI-1 80 μg/ml, NMDI-14 20 μg/ml)
NC[C@H]1O[C@H](O[C@H]2[C@H](O)[C@@H](O[C@H]3O[C@H](CO)[C@@H](O)[C@H](N)[C@H]3O)[C@H](N)C[C@@H]2N)[C@H](N)C[C@@H]1O [tobramycin] | did not stimulate CFTR function |  |  |  | 
CN[C@@H]1[C@@H](O)[C@@H](O[C@@H]2[C@@H](O)[C@H](O[C@H]3O[C@H]([C@@H](C)O)[C@@H](O)[C@H](O)[C@H]3N)[C@@H](N)C[C@H]2N)OC[C@]1(C)O [G418, geneticin] |  | 72 h | > 75% | no significant effect | 
CCOC(=O)c1c(NC(=O)CC2Nc3cc(C)c(C)cc3NC2=O)sc(C)c1C (stereo not drawn) [NMDI-14] | significantly increased |  |  |  | significantly increased
